Reference: patent EP1081131A1 (priority 1998, dated 1999)

Assays:
E. coli = assay: Antibacterial activity in vitro, preparation in a cavity of nutrient agar; format: cell-based
Procedure: (§1) The antibacterial activity of the claimed compounds was studied with the method of seeding solutions of the preparation in a cavity. The test-microbe was put in a Petri dish containing a simple nutrient agar. The preparation in an amount of 0.02 ml in necessary concentrations was put in a cavity located in the middle of the Petri dish. The results were taken after 24-hour incubation in a thermostat at 37°C by determination of the zone of delay of growth of the microorganisms along the edges of the cavity.

Lactobacteria = assay: as above; format: cell-based; details: Table 7
Procedure: as §1

S. epidermides = assay: as above; format: cell-based; details: Table 7
Procedure: as §1

M. avium = assay: Antimycobacterial activity in vitro, vertical diffusion on dense nutrient; format: cell-based; details: Atypical strain M. avium
M.fortuirum = assay: as above; format: cell-based; details: Atypical strain M.fortuirum
H37Rv = assay: as above; format: cell-based, mycobacteria; details: Typical strain H37Rv
M. smegmatis = assay: as above; format: cell-based; details: Atypical strain M. smegmatis
[1] = Acute toxicity on mice (per os); details: mouse, in vivo, white mice, per os in 0.5% solution of starch for 5 days; for LD50 at 5 days: oral; for LD50: po
Procedure: A study of acute toxicity was carried out according to a standard method on white mice. The animals received the preparation per os in a 0.5% solution of starch for 5 days.

strain H37Rv = assay: Therapeutic action on infected guinea pigs; format: in vivo; details: for Average change in weight of pigs during test / Weight of lungs / Weight of spleen: 21 mg/kg (isoniazid equivalent dose), 5 times a week for 60 days
M. bovis = format: cell-based; details: Typical strain M. bovis
[2] = system: Sensitive to streptomycin, rifamycin and isoniazid; assay: Bacteriostatic activity on patient strains (Table 4); format: cell-based, mycobacteria of tuberculosis; details: taken from patients, Central SRI of Tuberculosis RAMS 1997
Candida Albicans = assay: Antibacterial activity in vitro, preparation in a cavity of nutrient agar; format: cell-based; details: Table 6
Procedure: as §1

P. vulgaris = assay: as above; format: cell-based; details: Table 6
Procedure: as §1

S. aureus = assay: as above; format: cell-based; details: Table 6
Procedure: as §1

[3] = Carrying of cations from one aqueous phase to another through a layer of nonpolar organic solvent (lipophil membrane); format: physicochemical
Procedure: Purification of the prepared compounds is controlled by the TLC method. The meanings of Rf of the claimed compounds were determined using "Sorbfil" plates (Silicagel CTX-1A, UV) (Russia) or "Silufol- UV" plates (Czechoslovakia). The composition and structure of the new compounds were confirmed by element analysis (C,H,N,O analyzer of the Karlo Erba firm) and also IR (Specord-UV-.751R) and PMR spectroscopy (Tesla BS-597A, 100 MHz). An UZDN-2T ultrasound disperser at a frequency of 22 kHz was used to carry out the reaction with ultrasound action. The cation-carrying properties of the claimed compounds were studied in accordance with a generally accepted method, which consists of studying the carrying of a cation from one aqueous phase to another aqueous phase through a layer of a nonpolar organic solvent.

Compound | Inhibiting level (E. coli; Table 7) [µg/mL] | Inhibiting level (Lactobacteria) [µg/mL] | Inhibiting level (S. epidermides) [µg/mL] | Antimycobacterial activity of claimed preparations in tests In vitro (M. avium) [µg/mL] | Antimycobacterial activity of claimed preparations in tests In vitro (M.fortuirum) [µg/mL] | Antimycobacterial activity of claimed preparations in tests In vitro (H37Rv) [µg/mL] | also measured
O=Cc1ccccc1OCCOc1ccccc1C=O [1,8-Bis(2-formylphenoxy)-ethane] | >200 | >200 | >200 |  |  |  | 
O=C(NN=Cc1cccc(OCCOCCOCCOc2cccc(C=NNC(=O)c3cccnc3)c2)c1)c1cccnc1.[Ni] [[1,8-Bis(3-nicotinoyl hydrazonomethyl phenoxy)-3,6-dioxaoctanejnickel(II)] | >50 | >50 | >50 |  |  |  | 
O=C(NN=Cc1ccccc1OCCCCOCCCCOc1ccccc1C=NNC(=O)c1cccnc1)c1cccnc1 [1,9-Bis(2-nicotinoyl hydrazonomethylphenoxy)-5-oxanonon] | >100 | >100 | >100 |  |  |  | 
O=C(NN=Cc1ccccc1OCCOCCOCCOCCOc1ccccc1C=NNC(=O)c1ccncc1)c1ccncc1 [1.11-Bis(2-isonicotinoyl hydrazonomethylphenoxy)-3,6,9-trioxaundecane] | >50 | >50 | >50 |  |  |  | 
C=CCSc1nc2ccc(NC(=O)c3ccccc3Cl)cc2s1 [Compound formula (II), 2-(allylthio)-6-(2-chlorobenzoylamino)benzothiazole, reference compound] |  |  |  | 25.0 | 10.0 | 10.0 | 
NNC(=O)c1ccncc1 [Isoniazid, hydrazide of isonicotinic acid, reference compound] |  |  |  | 50.0 | 50.0 | 0.05 | Antimycobacterial activity of claimed preparations in tests In vitro (M. smegmatis): 50.0 µg/mL; LD50 at 5 days [1]: 363 mg/kg; Average change in weight of pigs during test (strain H37Rv): 180.60 ± 18.80 g; Weight of lungs (strain H37Rv): 4.49 ± 0.80 g; Weight of spleen (strain H37Rv): 9.34 ± 0.30 g; tuberculosis changes after the end of the course of treatment (strain H37Rv; after 60 days of treatment): detected as morphological, not as bacteriological; Antimycobacterial activity of claimed preparations in tests In vitro (M. bovis): 0.05 µg/mL; Inhibiting level [2]: 0.29 µg/mL
O=Cc1ccc(Cl)cc1OCCOc1cc(Cl)ccc1C=O [1,2-Bis(2-formyl-5-chlorphenoxy)-ethane] |  |  |  | 25.0 | 25.0 | 0.4 | Antimycobacterial activity of claimed preparations in tests In vitro (M. smegmatis): 6.3 to 12.5 µg/mL; Antimycobacterial activity of claimed preparations in tests In vitro (M. bovis): 0.4 µg/mL
O=C(NN=Cc1ccccc1OCCOCCOCCOc1ccccc1C=NNC(=O)c1ccncc1)c1ccncc1 [1,8-bis(2-isonicotinoyl hydrazonomethylphenoxy)-3,6-dioxaoctane] |  |  |  | 25.0 | 12.5 | 0.05 | Antimycobacterial activity of claimed preparations in tests In vitro (M. smegmatis): 12.5 µg/mL; LD50 [1]: > 2000 mg/kg; Average change in weight of pigs during test (strain H37Rv): 148.80 ± 29.40 g; Weight of lungs (strain H37Rv): 4.90 ± 0.90 g; Weight of spleen (strain H37Rv): 8.98 ± 0.15 g; Inhibiting level (Candida Albicans): >500 µg/mL; Inhibiting level (P. vulgaris): >500 µg/mL; Inhibiting level (E. coli; Table 6): >500 µg/mL; Inhibiting level (S. aureus): >500 µg/mL
O=C(NN=Cc1c(OCCOc2ccc3ccccc3c2C=NNC(=O)c2ccccc2)ccc2ccccc12)c1ccccc1 [1,2-Bis[2(benzoyl hydrazonomethylnaphthoxy-2)]-ethane] | >50 | >50 | >50 |  |  |  | 
1,5-Bis(2-phenyl hydrazonomethyl phenoxy)-3-oxapentane |  |  |  |  |  |  | Speed of carrying ([3]; Cation of metal Cu): 2.0 mol h^-1 10^-7; Speed of carrying ([3]; Cation of metal Fe): 60.0 mol h^-1 10^-7; Speed of carrying ([3]; Cation of metal K): 34.5 mol h^-1 10^-7; Speed of carrying ([3]; Cation of metal Na): 28.7 mol h^-1 10^-7
COc1cc(C=NNC(=O)c2ccccc2)ccc1OCCOc1ccc(C=NNC(=O)c2ccccc2)cc1OC [1,2-Bis(2-methoxy-4-benzoyl hydrazonomethylphenoxy)-ethane] | >50 | >50 | >50 |  |  |  | 
O=Cc1ccccc1OCCOCCOc1ccccc1C=O |  |  |  |  |  |  | LD50 at 5 days [1]: > 2000 mg/kg
O=C(NN=Cc1ccccc1OCCOCCOc1ccccc1C=NNC(=O)c1ccccc1)c1ccccc1 [1,5-Bis(2-benzoyl hydrazonomethylphenoxy)-3-oxapentane] |  |  |  |  |  |  | LD50 [1]: > 1000 mg/kg
O=C(NN=Cc1ccccc1OCCOCCOc1ccccc1C=NNC(=O)c1ccncc1)c1ccncc1 [1,5-Bis(2-isonicotinoyl hydrazonomethylphenoxy)-3-oxapentane] |  |  |  | 25.0 | 12.5 | 0.01 | Antimycobacterial activity of claimed preparations in tests In vitro (M. smegmatis): 12.5 µg/mL; Antimycobacterial activity of claimed preparations in tests In vitro (M. bovis): 0.01 µg/mL; Inhibiting level (Candida Albicans): >500 µg/mL; Inhibiting level (P. vulgaris): >500 µg/mL; Inhibiting level (E. coli; Table 6): >500 µg/mL; Inhibiting level (S. aureus): >500 µg/mL; Inhibiting level [2]: 0.58 µg/mL
